{"source": "patent US20140010801A1", "about": "“Compositions and Methods for Restoring or Rejuvenating Stem/Progenitor Cell Function” (UNIVERSITY OF PITTSBURGH - OF THE COMMONWEALTH SYSTEM OF …, priority 2012, published 2014)", "key": {"aged WT MDSPCs": {"test_system": "aged WT MDSPCs", "test": "Myogenic potential (fusion index) of aged MDSPCs under IKK-β inhibition", "assay_type": "cell-based, mouse", "parameters": "dose or concentration left out as unconfirmed", "conditions": "fusion conditions", "text": "Reduction of NF-κB enhances the myogenic differentiation potential and resistance to stress in MDSPCs isolated from naturally aged mice. To determine further whether the NF-κB signaling pathway plays a role in driving age-related stem cell dysfunction, whether pharmacologic inhibition of IKK-β would restore the myogenic potential of aged WT MDSPCs was examined. […] MDSPCs were isolated from 30 month old p65^+/− and 24 month old WT mice and compared the myogenic potential of 30 month old p65^+/− MDSPCs in vitro to naturally aged WT MDSPCs. The results confirmed that MDSPCs from p65^+/− aged mice (30 month) were more myogenic than MDSPCs from 24 month old WT mice."}, "Ercc1^−/− MEFs": {"test_system": "Ercc1^−/− MEFs", "test": "Reversal of senescence (SA-β-gal+) of Ercc1−/− MEFs", "assay_type": "cell-based, mouse", "conditions": "within 24 hours of treatment", "protocol": "FIG. 19 depicts analysis of the ability of an IKK inhibitor (IKKiVII) to rescue senescence (SA-β-gal+) […] MEFs after 24 hours of treatment.\nTo determine whether NF-κB is activated by endogenous genotoxic stress, which arises as a consequence of normal metabolism, Ercc1^−/− primary cells and mice were used, which are defective in DNA repair were used. Phosphorylated p65 (p-p65) and IκB were measured in nuclear and cytoplasmic extracts from early passage, congenic Ercc1^−/− and WT primary MEFs by immunoblot, and there was a >2-fold increase in nuclear p-p65 in Ercc1^−/− MEFs compared to WT, which correlated with an increase in the level of phosphorylated IκB (p-IκB) in the cytoplasm. EMSA was used to confirm increased NF-κB binding in nuclear extracts of Ercc1^−/− MEFs, which was abrogated by pretreatment of the samples with an anti-p65 antibody. To determine whether premature senescence of Ercc1^−/− MEFs is NF-κB dependent, the growth of Ercc1^−/−; p65^−/− MEFs was compared to congenic Ercc1−/− MEFs. Ercc1^−/− MEFs have reduced proliferation and increased replicative senescence as measured by SA-β-Gal staining, γ-H2AX foci and p16 expression. […] Furthermore, the Ercc1^−/−; p65^−/− MEFs had reduced ROS compared to Ercc1 cells as determined by staining mitochondria with DiOC6 and superoxide anion with MitoSOX. […]"}, "Ercc1^−/Δ mice": {"test_system": "Ercc1^−/Δ mice", "test": "Chronic XJB-5-131 treatment of Ercc1−/Δ mice", "assay_type": "in vivo, mouse"}}}
{"smiles": "NC(=O)Nc1sc(-c2ccc(F)cc2)cc1C(N)=O", "note": "[IKKβ inhibitor IV]", "values": [{"measurement": "fusion index of aged MDSPCs", "setting": "aged WT MDSPCs", "result": "significantly increased"}]}
{"smiles": "O=C(c1ccc(Nc2nccc(-c3cc4ccccc4s3)n2)cc1)N1CCC(N2CCCC2)CC1", "note": "[IKKiVII]", "values": [{"measurement": "senescence of Ercc1^−/− MEFs (>60% of cells SA-βgal+)", "setting": "Ercc1^−/− MEFs", "result": "could be reversed"}]}
{"smiles": "CC(C)C[C@@H](/C=C/[C@H](Cc1ccccc1)C(=O)N1CCC[C@H]1C(=O)N[C@H](C(=O)N[C@@H](CCCNC(=O)OCc1ccccc1)C(=O)NC1CC(C)(C)N([O])C(C)(C)C1)C(C)C)NC(=O)OC(C)(C)C", "note": "[XJB-5-131]", "values": [{"measurement": "onset of aging-related degenerative changes", "setting": "Ercc1^−/Δ mice", "result": "delay the onset"}]}
